Earlier results on two compounds are cited in US20050175694A1, “Long acting compositions comprising zidovudine and lamivudine” (priority 2002, published 2005).

Structures are written as SMILES.

For the series the following is noted: in vivo.

For the compound `Nc1ccn([C@@H]2CS[C@H](CO)O2)c(=O)n1` [lamivudine], the oral bioavailability is on record as 86%.

`Cc1cn([C@H]2C[C@H](N=[N+]=[N-])[C@@H](CO)O2)c(=O)[nH]c1=O` [zidovudine]: the serum half-life is 1.1 h and the oral bioavailability is listed as 60%.
